Activity calls are given as the source filed them. The calls are words filed in the database; no cut-off is given here.
Key:
[1] = Clearance in Cynomolgus monkey blood at 1 mg/kg, iv measured at 2 to 72 hrs by LC-MS/MS analysis; assay type: ADME, organism-based, Macaca fascicularis; conditions: whole blood, time 2-72 hrs
[2] = test system: Plasmodium falciparum; assay: Antimalarial activity against Plasmodium falciparum Dd2048 harbouring pfpi4k mutated loci assessed as inhibition of parasite growth pretreated for 48 hrs followed by [3H]-hypoxanthine addition measured after 24 hrs by scintillation counting method; assay type: functional, organism-based
[3] = Toxicity in Han Wistar rat assessed as effect on mydriasis at 250 to 1000 mg/kg, po administered every other day for 7 days; assay type: organism-based; conditions: in vivo, 168 h, dose 250-1000 mg/kg, time 7 day
[4] = Intrinsic clearance in rat hepatocytes measured per 10^6 cells; assay type: ADME, cell-based, Hepatocyte
[5] = Clearance in Sprague-Dawley rat blood at 1 mg/kg, iv measured at 2 to 72 hrs by LC-MS/MS analysis; assay type: ADME, organism-based; conditions: whole blood, time 2-72 hrs
[6] = Genotoxicity in Han Wistar rat by ames assay; assay type: toxicity
[7] = test system: Plasmodium falciparum; assay: Antimalarial activity against Plasmodium falciparum K1 harbouring Pf-crt, Pf-mdrl,Pf-dhfr, Pf-dhps mutated loci assessed as inhibition of parasite growth pretreated for 48 hrs followed by [3H]-hypoxanthine addition measured after 24 hrs by scintillation counting method; assay type: functional, organism-based
[8] = Toxicity in Han Wistar rat assessed as structural changes in retina at 250 to 1000 mg/kg, po administered every other day for 7 days; assay type: organism-based; conditions: in vivo, 168 h, dose 250-1000 mg/kg, time 7 day
[9] = test system: Plasmodium falciparum; assay: Antimalarial activity against DDD107498 resistant Plasmodium falciparum Dd2 harbouring pfeef2 mutated loci assessed as inhibition of parasite growth pretreated for 48 hrs followed by [3H]-hypoxanthine addition measured after 24 hrs by scintillation counting method; assay type: functional, organism-based
[10] = target: T1, Plasmepsin X (Plasmodium falciparum (isolate 3D7), UniProt Q8IAS0); assay: biochemical
Description: Inhibition of Plasmodium falciparum recombinant C-terminal TEV cleavable 8his-tagged PMX by FRET assay

[11] = test system: Plasmodium falciparum; assay: Antimalarial activity against Plasmodium falciparum TM90C2b harbouring Pf-crt, Pf-mdrl,Pfd-hfr, Pf-cytbQ0 mutated loci assessed as inhibition of parasite growth pretreated for 48 hrs followed by [3H]-hypoxanthine addition measured after 24 hrs by scintillation counting method; assay type: functional, organism-based
[12] = Oral bioavailability in Cynomolgus monkey blood at 10 mg/kg measured at 2 to 72 hrs by LC-MS/MS analysis; assay type: ADME, organism-based, Macaca fascicularis; conditions: time 2-72 hrs
[13] = fAUC in Han Wistar rat at 1000 mg/kg, po administered every other day for 7 days; assay type: ADME, organism-based; conditions: in vivo, 168 h, time 7 day
[14] = Toxicity in Han Wistar rat assessed as auto-fluorescent granule accumulation in retinal epithelium at 250 to 1000 mg/kg, po administered every other day for 7 days; assay type: organism-based; conditions: in vivo, 168 h, dose 250-1000 mg/kg, time 7 day
[15] = test system: Plasmodium falciparum; assay: Antimalarial activity against Plasmodium falciparum infected NSG mouse model assessed as accumulation of circulating mature schizonts measured after 2 cycles of drug exposure at 60 mg/kg, po bid administered daily for 3 days; assay type: functional, organism-based; conditions: time 3.0 day
[16] = in vivo; conditions: cynomolgus monkey, blood, po, 10 mg/kg
[17] = test system: Plasmodium falciparum; assay: Antimalarial activity against ELQ300 resistant Plasmodium falciparum Dd2 harbouring pfcytB mutated loci assessed as inhibition of parasite growth pretreated for 48 hrs followed by [3H]-hypoxanthine addition measured after 24 hrs by scintillation counting method; assay type: functional, organism-based
[18] = Terminal half life in Cynomolgus monkey blood at 1 mg/kg, iv measured at 2 to 72 hrs by LC-MS/MS analysis; assay type: ADME, organism-based, Macaca fascicularis; conditions: whole blood, time 2-72 hrs, read-out: beta t1/2 (converted)
[19] = Cardiotoxicity in anesthetized guinea-pig assessed as decrease in arterial blood pressure; assay type: toxicity, Cavia porcellus; conditions: 0.09 µM, DDE = dose-dependent effect, dose 90 nM
[20] = test system: NIH3T3; assay: Phototoxicity against mouse 3T3 cells by neutral red uptake assay; assay type: toxicity, cell-based
[21] = test system: Plasmodium falciparum; assay: Antiplasmodial activity against sensitive Plasmodium falciparum NF54 infected in human red blood cells assessed as reduction in [3H]-hypoxanthine incorporation pretreated for 48 hrs followed by [3H]-hypoxanthine addition measured after 24 hrs by scintillation counting method; assay type: functional, organism-based
[22] = Cmax in Cynomolgus monkey blood at 10 mg/kg, po measured at 2 to 72 hrs by LC-MS/MS analysis; assay type: ADME, organism-based, Macaca fascicularis; set-up: dose 10 mg/kg, time 2-72 hrs, route po; conditions: whole blood
[23] = Toxicity in Han Wistar rat assessed as effect on auditory reflex at 250 to 1000 mg/kg, po administered every other day for 7 days; assay type: organism-based; conditions: in vivo, 168 h, dose 250-1000 mg/kg, time 7 day
[24] = organism: Homo sapiens; assay: Inhibition of BACE (unknown origin) at 10 uM relative to control
[25] = AUC in Cynomolgus monkey blood at 1 mg/kg, iv measured at 2 to 72 hrs by LC-MS/MS analysis; assay type: ADME, organism-based, Macaca fascicularis; set-up: dose 1 mg/kg, time 2-72 hrs, route iv; conditions: whole blood
[26] = Cardiotoxicity in anesthetized guinea-pig assessed as cardiac contractility; assay type: toxicity, Cavia porcellus; conditions: 0.09 µM, DDE = dose-dependent effect, dose 90 nM
[27] = test system: Plasmodium falciparum; assay: Antimalarial activity against Plasmodium falciparum PH1263-C harbouring Pf-crt mutated loci assessed as inhibition of parasite growth pretreated for 48 hrs followed by [3H]-hypoxanthine addition measured after 24 hrs by scintillation counting method; assay type: functional, organism-based
[28] = target: T1, Plasmepsin X; assay: Inhibition of PMX in Plasmodium falciparum 3D7 HA epitope
[29] = test system: Plasmodium falciparum; assay: Resistance development in asexual blood stage Plasmodium falciparum Dd2-B2 assessed as minimum inoculum of resistance at 3 times IC50 measured on day 30 using at 2 x 10^7 inoculum by SYBR dye based flow cytometry; assay type: functional, organism-based; conditions: time 30.0 day
[30] = test system: Plasmodium falciparum; assay: Antimalarial activity against asexual blood stage Plasmodium falciparum 3D7 assessed as parasite growth inhibition by measuring parasitemia by LDH assay; assay type: functional, organism-based
[31] = test system: Plasmodium berghei; assay: Antimalarial activity against luciferase expressing Plasmodium berghei sporozoites infected in naive C57B/6 liver mouse model assessed as decrease in liver infection at 50 mg/kg, po administered once daily on day 8 by Giemsa staining based microscopic analysis; assay type: functional, organism-based; conditions: time 8.0 day
[32] = Lipophilicity, log D of the compound; assay type: physicochemical; conditions: octanol/water
[33] = Drug metabolism in Cynomolgus monkey hepatocytes assessed as (S)-6-(2-chloro-3-((6-cyclopropylpyridin-3-yl)amino)phenyl)-2-imino-6-methyltetrahydropyrimidin-4(1H)-one metabolite formation; assay type: ADME, cell-based, Macaca fascicularis, Hepatocyte
[34] = Drug metabolism in rat hepatocytes assessed as (S)-6-(2-chloro-3-((6-cyclopropylpyridin-3-yl)amino)phenyl)-2-imino-6-methyl-3-((2S,4S)-2-methyltetrahydro-2H-pyran-4-yl)tetrahydropyrimidin-4(1H)-one metabolite formation; assay type: ADME, cell-based, Hepatocyte
[35] = test system: Plasmodium berghei; assay: Antimalarial activity against Plasmodium berghei sporozoites infected in naive C57B/6 liver mouse model assessed as decrease in liver infection at 50 mg/kg, po administered once daily for 1 to 2 days by Giemsa staining based microscopic analysis; assay type: functional, organism-based; conditions: time 1-2 day
[36] = Lipophilicity, logD of compound at pH 7.4; assay type: physicochemical; conditions: buffer
[37] = target: Potassium voltage-gated channel subfamily A member 5 (Homo sapiens, UniProt P22460); assay: Inhibition of Kv1.5 (unknown origin) by patch clamp method; assay type: toxicity
[38] = test system: Plasmodium falciparum; assay: Antimalarial activity against Plasmodium falciparum infected NSG mouse model at 50 mg/kg, po administered daily for 3 days; assay type: functional, organism-based; conditions: time 3.0 day
[39] = target: Voltage-gated inwardly rectifying potassium channel KCNH2 (Homo sapiens, UniProt Q12809); assay: Inhibition of hERG cardiac ion channel by patch clamp assay; assay type: toxicity
[40] = Drug metabolism in rat hepatocytes assessed as (S)-6-(2-chloro-3-((6-cyclopropylpyridin-3-yl)amino)phenyl)-2-imino-6-methyltetrahydropyrimidin-4(1H)-one metabolite formation; assay type: ADME, cell-based, Hepatocyte

T1 sequence (Q8IAS0 whole entry): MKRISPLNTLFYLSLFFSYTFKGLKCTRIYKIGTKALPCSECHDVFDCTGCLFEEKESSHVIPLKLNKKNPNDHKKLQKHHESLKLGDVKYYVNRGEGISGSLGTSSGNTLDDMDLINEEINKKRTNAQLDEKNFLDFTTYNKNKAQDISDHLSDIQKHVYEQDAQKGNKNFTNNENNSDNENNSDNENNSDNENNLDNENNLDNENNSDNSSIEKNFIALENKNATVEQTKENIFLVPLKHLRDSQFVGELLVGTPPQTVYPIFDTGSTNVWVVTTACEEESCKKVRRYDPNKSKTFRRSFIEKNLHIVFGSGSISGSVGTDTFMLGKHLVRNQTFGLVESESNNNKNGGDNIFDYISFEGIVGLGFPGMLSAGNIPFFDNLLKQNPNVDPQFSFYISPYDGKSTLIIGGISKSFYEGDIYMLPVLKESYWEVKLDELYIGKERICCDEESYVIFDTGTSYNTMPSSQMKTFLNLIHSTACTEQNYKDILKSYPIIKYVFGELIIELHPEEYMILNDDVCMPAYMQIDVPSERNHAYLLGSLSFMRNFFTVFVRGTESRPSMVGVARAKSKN
Chain of Voltage-gated inwardly rectifying potassium channel KCNH2 (Q12809 whole entry): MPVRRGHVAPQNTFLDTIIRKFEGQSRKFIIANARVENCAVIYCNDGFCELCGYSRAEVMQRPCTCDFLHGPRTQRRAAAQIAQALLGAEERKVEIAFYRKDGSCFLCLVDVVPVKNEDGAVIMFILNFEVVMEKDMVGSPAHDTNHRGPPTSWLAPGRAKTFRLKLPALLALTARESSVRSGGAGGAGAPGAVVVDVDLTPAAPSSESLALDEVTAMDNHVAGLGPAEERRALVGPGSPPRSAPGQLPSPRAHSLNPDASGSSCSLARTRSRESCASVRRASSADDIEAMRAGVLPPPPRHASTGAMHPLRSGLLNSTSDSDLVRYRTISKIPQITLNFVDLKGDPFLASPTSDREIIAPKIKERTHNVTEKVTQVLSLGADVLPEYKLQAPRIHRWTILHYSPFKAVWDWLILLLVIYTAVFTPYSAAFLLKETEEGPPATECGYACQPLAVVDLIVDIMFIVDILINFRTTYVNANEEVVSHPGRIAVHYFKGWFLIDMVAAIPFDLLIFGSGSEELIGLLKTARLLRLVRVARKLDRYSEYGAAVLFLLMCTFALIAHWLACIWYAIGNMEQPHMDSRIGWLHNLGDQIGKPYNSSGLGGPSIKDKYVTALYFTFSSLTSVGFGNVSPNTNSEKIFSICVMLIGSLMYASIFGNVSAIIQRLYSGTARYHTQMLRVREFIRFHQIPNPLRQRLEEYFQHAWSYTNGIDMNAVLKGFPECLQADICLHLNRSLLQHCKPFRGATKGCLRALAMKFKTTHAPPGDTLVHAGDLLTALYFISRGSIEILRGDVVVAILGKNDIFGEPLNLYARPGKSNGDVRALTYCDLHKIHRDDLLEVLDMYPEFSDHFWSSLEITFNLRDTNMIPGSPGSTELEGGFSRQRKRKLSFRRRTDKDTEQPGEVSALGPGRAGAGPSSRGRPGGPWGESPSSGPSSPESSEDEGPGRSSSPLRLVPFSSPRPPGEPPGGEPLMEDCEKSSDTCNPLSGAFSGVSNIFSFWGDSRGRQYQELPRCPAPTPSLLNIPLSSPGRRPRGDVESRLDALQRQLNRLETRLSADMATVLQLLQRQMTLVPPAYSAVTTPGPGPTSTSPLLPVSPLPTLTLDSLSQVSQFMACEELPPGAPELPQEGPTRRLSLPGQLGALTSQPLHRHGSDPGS
Chain of Potassium voltage-gated channel subfamily A member 5 (P22460 whole entry): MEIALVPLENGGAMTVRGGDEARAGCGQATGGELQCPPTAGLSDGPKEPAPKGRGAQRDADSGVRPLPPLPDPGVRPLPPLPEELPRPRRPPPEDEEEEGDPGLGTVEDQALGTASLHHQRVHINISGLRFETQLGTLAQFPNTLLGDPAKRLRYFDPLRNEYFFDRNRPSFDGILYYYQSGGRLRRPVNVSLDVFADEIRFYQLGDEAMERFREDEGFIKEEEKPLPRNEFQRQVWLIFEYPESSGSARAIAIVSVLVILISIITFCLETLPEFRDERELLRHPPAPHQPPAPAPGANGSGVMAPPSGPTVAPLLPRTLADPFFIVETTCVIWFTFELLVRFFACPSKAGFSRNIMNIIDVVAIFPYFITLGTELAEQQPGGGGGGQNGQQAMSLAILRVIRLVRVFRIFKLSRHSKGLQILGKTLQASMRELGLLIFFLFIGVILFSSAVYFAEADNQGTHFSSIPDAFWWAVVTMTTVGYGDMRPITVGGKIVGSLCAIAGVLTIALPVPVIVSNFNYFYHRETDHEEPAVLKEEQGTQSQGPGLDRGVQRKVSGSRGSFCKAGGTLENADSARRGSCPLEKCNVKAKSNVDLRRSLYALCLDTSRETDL

In the case of `C[C@H]1C[C@@H](N2C(=N)N[C@](C)(c3cccc(NC(=O)c4cccc(C#N)c4)c3Cl)CC2=O)CCO1`, the clearance [1] is reported as 18.9 mL/min/kg, the IC50 [2] is reported as 20 nM and the Activity [3] is reported as “Non-Toxic”. The CLH [4] was 66 µL/min, the clearance [5] was 43.9 mL/min/kg and the Activity [6] was “Non-Toxic”. For the same compound, the IC50 [7] was 33 nM, the Activity [8] was “Non-Toxic” and the IC50 [9] was 22 nM. For the same compound, the IC50 [10] was 7 nM, the IC50 [11] was 15 nM and the bioavailability [12] was 39%. For the same compound, the fAUC [13] was 908 µM·h, the Activity [14] was “Non-Toxic” and the Activity [15] was “Active”. It also gave a Tmax [16] of 1 h, an IC50 [17] of 17 nM and a half-life [18] of 4.1 h. The Activity [19] was “Dde”, the Activity [20] was “Non-Toxic” and the IC50 [21] was 34.6 nM. The Cmax [22] was 2560 nM, the Activity [23] was “Non-Toxic” and the inhibition [24] was 64%. The AUC [25] was 1.91 µM·h, the Activity [26] was “Dde” and the IC50 [27] was 18 nM. For the same compound, the IC50 [28] was 7 nM.

In the case of `C[C@H]1C[C@@H](N2C(=N)N[C@](C)(c3cccc(Nc4ccc(C5CC5)nc4)c3Cl)CC2=O)CCO1`, the Activity [29] is reported as “Active”, the IC50 [30] is reported as 14 nM and the Activity [31] is reported as “Active”. The logD [32] was 2.5, the Drug metabolism [33] was “Metabolite_Detected” and the Drug metabolism [34] was “Metabolite_Detected”. The Activity [35] was “Active”, the logD [36] was 2.5 and the IC50 [37] was 5000 nM. For the same compound, the Activity [38] was “Active”, the IC50 [39] was 14000 nM and the Drug metabolism [40] was “Metabolite_Detected”.

— ChEMBL document CHEMBL5108065 (J Med Chem, 2022)
